# According to paper PMC6361973, “The NOP-1 peptide derived from the central regulator of ethylene signaling EIN2 delays floral senescence in cut flowers” (Scientific Reports, 2019):
# B1: AtEIN2^479-1294 (domain or fragment)
# chain: NALSYPSVQEEEIERTETRRNEDESIVRLESRVKDQLDTTSVTSSVYDLPENILMTDQEIRSSPPEERELDVKYSTSQVSSLKEDSDVKEQSVLQSTVVNEVSDKDLIVETKMAKIEPMSPVEKIVSMENNSKFIEKDVEGVSWETEEATKAAPTSNFTVGSDGPPSFRSLSGEGGSGTGSLSRLQGLGRAARRHLSAILDEFWGHLYDFHGQLVAEARAKKLDQLFGTDQKSASSMKADSFGKDISSGYCMSPTAKGMDSQMTSSLYDSLKQQRTPGSIDSLYGLQRGSSPSPLVNRMQMLGAYGNTTNNNNAYELSERRYSSLRAPSSSEGWEHQQPATVHGYQMKSYVDNLAKERLEALQSRGEIPTSRSMALGTLSYTQQLALALKQKSQNGLTPGPAPGFENFAGSRSISRQSERSYYGVPSSGNTDTVGAAVANEKKYSSMPDISGLSMSARNMHLPNNKSGYWDPSSGGGGYGASYGRLSNESSLYSNLGSRVGVPSTYDDISQSRGGYRDAYSLPQSATTGTGSLWSRQPFEQFGVAERNGAVGEELRNRSNPINIDNNASSNVDAEAKLLQSFRHCILKLIKLEGSEWLFGQSDGVDEELIDRVAAREKFIYEAEAREINQVGHMGEPLISSVPNCGDGCVWRADLIVSFGVWCIHRVLDLSLMESRPELWGKYTYVLNRLQGVIDPAFSKLRTPMTPCFCLQIPASHQRASPTSANGMLPPAAKPAKGKCTTAVTLLDLIKDVEMAISCRKGRTGTAAGDVAFPKGKENLASVLKRYKRRLSNKPVGMNQDGPGSRKNVTAYGSLG
# How the values were obtained:
# [1] = tested on: flower senescence; conditions: cited from earlier work; for prevention of the effects of exogenous ethylene on flower senescence: during transport and storage
# [2] = tested on: ethylene biosynthesis; conditions: cited from earlier work
# Description: Consequently, a number of commercial products based o ...
# [3] = tested on: cut roses (Rosa hybrida); test: Senescence / vase life of cut roses; type: in vivo; conditions: 1 mM silver nitrate or 0.5 mM NOP-1 in vase water; untreated controls ended vase life on day 9; six flowers per treatment
# Description: To clarify whether NOP-1 also has the potential to serve as an inhibitor of senescence in cut flowers, we applied the peptide on cut carnations (Dianthus caryophyllus) and analyzed the effect on floral senescence in this model ethylene response system[9],[13],[17],[30]. In analogy to treatment with the chemical senescence inhibitor STS containing silver ions as active ingredient which target plant ethylene receptors[31] the peptide was directly supplied to the vase water. Senescence was monitored visually throughout the experiment and quantified by changes observed in petal size and/or color (Fig. 1A,B). […]
# Figure 2 Effect of small molecule inhibitors of ethylene signaling on flower senescence of cut roses. […] (B) Quantitative analysis of color change in petals after treatment with silver salt, NOP-1 peptide or buffer-only. […]
# Cut flowers of carnations (Dianthus caryophyllus) and rose (Rosa hybrida), graded for marketable quality, were obtained from a local flower producer. […] Progression of senescence was recorded photographically for a period of 15 days. […] Changes in petal size and color were quantified using ImageJ (32 bit v1.51t.). Relative discoloration of petals was quantified by drawing multiple lines across each flower (petals only) and calculating the average values for red (R), green (G) and blue (B). […]
# [4] = tested on: cut carnations (Dianthus caryophyllus); test: Senescence / vase life of cut carnations; type: in vivo
# Description: To clarify whether NOP-1 also has the potential to serve as an inhibitor of senescence in cut flowers, we applied the peptide on cut carnations (Dianthus caryophyllus) and analyzed the effect on floral senescence in this model ethylene response system[9],[13],[17],[30]. In analogy to treatment with the chemical senescence inhibitor STS containing silver ions as active ingredient which target plant ethylene receptors[31] the peptide was directly supplied to the vase water. Senescence was monitored visually throughout the experiment and quantified by changes observed in petal size and/or color (Fig. 1A,B). […] To further substantiate the effect of the peptide biological on floral senescence observed with the carnation model system, we used roses as another species of highly ethylene sensitive ornamental plants. […] The untreated controls completely ended their vase life on day 9 due to these morphological changes.
# Figure 1 Effect of small molecule inhibitors of ethylene signaling on flower senescence of cut carnations. (A) Visual images of carnation cut flowers treated with senescence inhibitor silver nitrate or peptide NOP-1. Representative photos of carnation petals treated with 1 mM silver nitrate or 0.5 mM NOP-1 on DAT 0, 3, 6, 9, 12 and 15. […] (B) Quantitative analysis of flower size (left) and petal color change (right) of carnation flowers after treatment with silver salt, NOP-1 peptide or buffer-only. […]
# Cut flowers of carnations (Dianthus caryophyllus) and rose (Rosa hybrida), graded for marketable quality, were obtained from a local flower producer. […] Progression of senescence was recorded photographically for a period of 15 days. […] Changes in petal size and color were quantified using ImageJ (32 bit v1.51t.). Relative discoloration of petals was quantified by drawing multiple lines across each flower (petals only) and calculating the average values for red (R), green (G) and blue (B). […] Relative size of flowers was quantified using a macro that specifically recognizes the flower (petals + sepals) but not the flower stem with flower size in pixel² as the output. […]
# [5] = target: Dianthus caryophyllus ethylene receptor DcETR1 (Dianthus caryophyllus); test: MST; NOP-1 unlabelled, titrated from 100 µM to 3 nM in 100 mM potassium phosphate buffer, 300 mM NaCl, 0.015% FosCholine-16, to 50 nM Alexa488-labelled DcETR1; Monolith NT.115, 50% MST power; triplicates
# Sequence of Dianthus caryophyllus ethylene receptor DcETR1 (Dianthus caryophyllus) (Q9M7M1 other isoform, or with tags, fused parts or gaps): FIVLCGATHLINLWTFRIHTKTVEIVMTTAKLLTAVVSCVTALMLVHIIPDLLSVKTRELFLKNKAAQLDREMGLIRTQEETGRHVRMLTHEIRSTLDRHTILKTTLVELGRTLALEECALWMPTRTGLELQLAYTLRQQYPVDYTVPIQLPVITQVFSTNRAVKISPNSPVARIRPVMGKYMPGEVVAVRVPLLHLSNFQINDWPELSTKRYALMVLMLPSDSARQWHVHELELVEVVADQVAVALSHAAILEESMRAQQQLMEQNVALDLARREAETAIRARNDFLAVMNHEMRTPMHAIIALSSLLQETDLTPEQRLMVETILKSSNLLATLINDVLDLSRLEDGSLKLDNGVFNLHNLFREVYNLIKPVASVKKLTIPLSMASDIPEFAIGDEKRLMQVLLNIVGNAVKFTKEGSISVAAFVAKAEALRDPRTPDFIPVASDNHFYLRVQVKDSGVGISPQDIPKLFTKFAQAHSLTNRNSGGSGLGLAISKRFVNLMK
# [6] = tested on: carnation ethylene receptor DcETR1; test: Microscale thermophoresis binding to carnation ethylene receptor DcETR1; design: species or system Dianthus caryophyllus; conditions: MST; denatured using 2% (w/v) SDS and 40 mM DTT in the assay buffer; triplicates
# Description: To elucidate the mode of action of NOP-1 on flower senescence and to determine whether the peptide biological works by the same molecular mechanism as determined for NOP-1 controlled ripening delay, we initiated interaction studies of the carnation ethylene receptor DcETR1, the central regulator of the ethylene signaling cascade EIN2 and the NOP-1 peptide. To this end, DcETR1 was cloned in E. coli, expressed and purified according to protocols established in our lab[32] for ethylene receptors from Arabidopsis thaliana, Physcomitrella patens, tomato and apple (Supplementary Fig. S1). […] To determine binding affinity and dissociation constants of the purified recombinant proteins and the NOP-1 peptide we used microscale thermophoresis. […] Consequently, targeting this interaction by small-molecule modulators has the potential to shut down ethylene signaling and related plant responses. Therefore, we tested binding of the ripening delaying peptide NOP-1 identified in previous studies to target the ETR1-EIN2 complex with our purified carnation receptor DcETR1. […] The precise interaction site of NOP-1 at the Arabidopsis ETR1 receptor was recently resolved in our lab by molecular and computational studies. […]
# [7] = target: Dianthus caryophyllus ethylene receptor DcETR1 (Dianthus caryophyllus); test: MST; AtEIN2^479-1294 unlabelled, titrated from 1457.5 nM to 0.7 nM in 50 mM potassium phosphate (pH 7.8), 300 mM NaCl, 0.015% FosCholine-16, to 50 nM Alexa488-labelled DcETR1; Monolith NT.115, 60% MST power; triplicates
# [8] = literature, reference not given
molecule,measurement,setting,value
"CC1=CC1 [1-MCP, 1-methylcyclopropene]",inhibition of ethylene action at 0 °C,[1]; 0 °C,almost no inhibition
same,inhibition of ethylene action at 20 °C,[1]; 20 °C,complete inhibition
same,delay of flower senescence on daily application,"[1]; applied on a daily basis, gaseous",significantly delayed flower senescence
same,effect of repetitive treatments on vase life and floral senescence of cut flowers,[1]; repetitive treatments with the gaseous inhibitor,marked increase in vase life and efficiently blocked floral senescence of cut flower
same,duration of senescence control compared with silver ions,"[1]; single treatment, literature, reference not given",does not control senescence for as long as silver ions
same,efficiency as ethylene action inhibitor,[1]; very small concentrations,highly efficient at very small concentrations
"NOCC(=O)O [AOA, amino-oxyacetic acid]",prevention of the effects of exogenous ethylene on flower senescence,[1]; [8],ineffective
same,blocking of ethylene production that accompanies senescence,[2],effective in blocking ethylene production
"NCCO/C=C/[C@H](N)C(=O)O [AVG, amino-ethoxyvinyl glycine]",prevention of the effects of exogenous ethylene on flower senescence,[1]; [8],ineffective
same,blocking of ethylene production that accompanies senescence,[2],effective in blocking ethylene production
"O=[N+]([O-])[O-].[Ag+] [silver salt, silver nitrate]","prolongation of vase life relative to buffer controls, cut roses",[3],6 to 8 days
same,"efficacy compared with the other treatment, cut carnations (in words)","[4]; 0.5 mM NOP-1 vs 1 mM silver salt (AgNO3), entire trial period",noticeably more efficient in extending the vase life of cut carnations than the peptide biological
same,"signs of petal senescence after 15 days, cut carnations","[4]; 1 mM silver salt (AgNO3) in vase water, 50 mM Tris/Acetic acid pH 8, 15 days, six flowers",almost no signs of senescence after 15 days
same,delay of petal senescence in cut carnations (in words),"[4]; 1 mM silver salt (AgNO3) in vase water, 50 mM Tris/Acetic acid pH 8, six flowers, vs buffer controls senescent after 6 days",delays the appearance of these morphological manifestations by several days
NOP-1 peptide,Kd,[5],3490 nM
B1,interaction with chemically denatured DcETR1 (negative control),[6],no interaction
same,Kd,[7],136 nM
